Test results reported in patent publication US20130053430A1, “MODULATION OF CETP EXPRESSION” (Isis Pharmaceuticals, Inc., priority 2010, published 2013).
Strand notation (5' to 3'): a small letter for the sugar, then the base; units joined by * are phosphorothioate-linked, units joined directly phosphodiester-linked; [ ] holds rarer units or linkages, { } end groups; capitals alone tell only the bases. e = 2'-O-(2-methoxyethyl) (MOE); [5mC] = 5-methylcytosine; d = 2'-deoxy (DNA)

Tests used:
[1] = test system: human CETP mRNA; assay: Dose-dependent antisense inhibition of human CETP in SW872 liposarcoma cells (Example 3); assay type: cell-based; details: Lipofectin, ~16 hours (Example 3)
Procedure: ISIS 17291 ([…], 6-8-6 MOE (SEQ ID NO: 115)), ISIS 17302 ([…], 6-8-6 MOE (SEQ ID NO: 116)), and ISIS 17305 ([…], 6-8-6 MOE (SEQ ID NO: 117), first disclosed in U.S. Ser. No. 11/031,827 (incorporated by reference herein), were also tested under the same conditions. Cells were plated at a density of 50,000 cells per well in a 24-well plate and transfected using Lipofectin reagent with 50 nM, 150 nM, and 300 nM concentrations of each antisense oligonucleotide. After approximately 16 hours, RNA was isolated from the cells and CETP mRNA levels were measured by quantitative real-time PCR. CETP mRNA levels were normalized to total RNA content, as measured by the house-keeping gene, GAPDH mRNA levels. Results are presented in Table 5 as percent inhibition of CETP, relative to untreated control cells.

[2] = test system: human CETP mRNA; assay: Antisense inhibition of human CETP mRNA in SW872 liposarcoma cells (Example 1); assay type: cell-based; details: 150 nM antisense oligonucleotide, lipofectin, ~24 hours, relative to untreated control cells
Procedure, shortened: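 SW872 cells transfected (lipofectin) with 150 nM 5-10-5 MOE gapmer (phosphorothioate, 5-methylcytosine). After about 24 h, CETP mRNA measured by qRT-PCR, normalized to GAPDH; values are % inhibition versus untreated cells.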

[3] = test system: human CETP mRNA; assay: Dose-dependent antisense inhibition of human CETP in SW872 liposarcoma cells (Example 2); assay type: cell-based; details: Lipofectin, ~16 hours (Example 2)
Procedure: Cells were plated at a density of 50,000 cells per well in a 24-well plate and transfected using Lipofectin reagent with 50 nM, 150 nM, and 300 nM concentrations of each antisense oligonucleotide. After approximately 16 hours, RNA was isolated from the cells and CETP mRNA levels were measured by quantitative real-time PCR. CETP mRNA levels were normalized to total RNA content, as measured by the house-keeping gene, GAPDH mRNA levels. Results are presented in Table 4 as percent inhibition of CETP, relative to untreated control cells.

[4] = test system: human CETP mRNA; assay: Antisense inhibition of human CETP mRNA in primary hepatocytes from huCETP transgenic mice (Example 4); assay type: cell-based, mouse; details: cytofectin, ~24 hours
Procedure, shortened: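 Primary hepatocytes from human CETP transgenic mice, 17,500 cells/well, transfected by cytofectin with 100 nM or 200 nM antisense oligonucleotide. After about 24 h, CETP mRNA quantified by real-time PCR, normalised to GAPDH, as percent inhibition versus untreated cells.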

Substance	percent inhibition of CETP ([1]; 50 nM)	percent inhibition of CETP ([1]; 150 nM)	percent inhibition of CETP ([1]; 300 nM)	% inhibition [2]	percent inhibition of CETP ([3]; 50 nM)	percent inhibition of CETP ([3]; 150 nM)	percent inhibition of CETP ([3]; 300 nM)	Percent inhibition of human CETP mRNA ([4]; 100 nM)	Percent inhibition of human CETP mRNA ([4]; 200 nM)
ISIS 17291: GACAAGTGGCTGATCTGGAT, 6-8-6 MOE; first disclosed in U.S. Ser. No. 11/031,827 (antisense; sugars from the 5' end e6 d8 e6, backbone and methylation of C not given here)	35%	0%	0%						
ISIS 349513: 5-10-5 MOE gapmer TCCAGCTGTGAGCCTGGTGC (eT*e[5mC]*e[5mC]*eA*eG*d[5mC]*dT*dG*dT*dG*dA*dG*d[5mC]*d[5mC]*dT*eG*eG*eT*eG*e[5mC])	87%	89%	91%	83%	97%	100%	95%	73%	92%
ISIS 17302: GCTTGCCTTCTGCTACAAGC, 6-8-6 MOE; first disclosed in U.S. Ser. No. 11/031,827 (antisense; sugars from the 5' end e6 d8 e6, backbone and methylation of C not given here)	0%	41%	45%						
ISIS 349465: 5-10-5 MOE gapmer GAGACATCAATGGACTTGGC (eG*eA*eG*eA*e[5mC]*dA*dT*d[5mC]*dA*dA*dT*dG*dG*dA*d[5mC]*eT*eT*eG*eG*e[5mC])				87%	96%	87%	96%	50%	66%
ISIS 349506: 5-10-5 MOE gapmer CGCCTTTGCTGTTCATGAGG (e[5mC]*eG*e[5mC]*e[5mC]*eT*dT*dT*dG*d[5mC]*dT*dG*dT*dT*d[5mC]*dA*eT*eG*eA*eG*eG)				92%	93%	86%	93%	95%	99%
ISIS 349490: 5-10-5 MOE gapmer CCTCTTGGAAGATTTCCTGG (e[5mC]*e[5mC]*eT*e[5mC]*eT*dT*dG*dG*dA*dA*dG*dA*dT*dT*dT*e[5mC]*e[5mC]*eT*eG*eG)				89%	97%	93%	88%	36%	80%
ISIS 349461: 5-10-5 MOE gapmer ATACTTGACTTGGCCAAGGA (eA*eT*eA*e[5mC]*eT*dT*dG*dA*d[5mC]*dT*dT*dG*dG*d[5mC]*d[5mC]*eA*eA*eG*eG*eA)				97%	75%	80%	88%	65%	52%
ISIS 349483: 5-10-5 MOE gapmer CTCTGAGACATTCTTGTAGA (e[5mC]*eT*e[5mC]*eT*eG*dA*dG*dA*d[5mC]*dA*dT*dT*d[5mC]*dT*dT*eG*eT*eA*eG*eA)				85%	100%	98%	85%	77%	63%
ISIS 17305: CCAGTGGGCCTTTAGGATAG, 6-8-6 MOE; first disclosed in U.S. Ser. No. 11/031,827 (antisense; sugars from the 5' end e6 d8 e6, backbone and methylation of C not given here)	18%	44%	55%						
ISIS 349481: 5-10-5 MOE gapmer AGGTAGGAGGCTGTGATGAC (eA*eG*eG*eT*eA*dG*dG*dA*dG*dG*d[5mC]*dT*dG*dT*dG*eA*eT*eG*eA*e[5mC])				66%				79%	65%
ISIS 349477: 5-10-5 MOE gapmer GATCTCTTTGCAGATCTGTC (eG*eA*eT*e[5mC]*eT*d[5mC]*dT*dT*dT*dG*d[5mC]*dA*dG*dA*dT*e[5mC]*eT*eG*eT*e[5mC])				41%				44%	47%
ISIS 349462: 5-10-5 MOE gapmer ATCTGGATGTTGTGCAACCC (eA*eT*e[5mC]*eT*eG*dG*dA*dT*dG*dT*dT*dG*dT*dG*d[5mC]*eA*eA*e[5mC]*e[5mC]*e[5mC])				76%				60%	76%
ISIS 349466: 5-10-5 MOE gapmer CCACAGACACGTTCTGAATG (e[5mC]*e[5mC]*eA*e[5mC]*eA*dG*dA*d[5mC]*dA*d[5mC]*dG*dT*dT*d[5mC]*dT*eG*eA*eA*eT*eG)				15%				57%	81%
